The record followed here is patent US8754209B2, “Indazole derivatives or pharmaceutically acceptable salts thereof as protein kinase inhibitors for proliferative diseases treatment, and a pharmaceutical composition containing the same as an active ingredient” (Korea Institute of Science and Technology, priority 2009, dated 2014).

A value given as a limit tells only on which side of the number the result lay.

For the assay, the system named is A375P cells. The assay is described as follows: Anti-proliferative activity on A375P cell line (MTT assay). It is filed as cell-based. The conditions noted are these: A375P human melanoma cell line. The protocol: A375P cells were purchased from American Type Culture Collection (ATCC, Rockville, Md., US) and maintained in DMEM medium (Welgene, Daegu, Korea) supplemented with 10% FBS (Welgene) and 1% penicillin/streptomycin (Welgene) in a humidified atmosphere with 5% CO2 at 37° C. The A375P cells were taken from culture substrate with 0.05% trypsin-0.02% EDTA and plated at a density of 5×10^3 cells/well in 96 well plates and then incubated at 37° C. for 24 h in a humidified atmosphere with 5% CO2 prior to treatment of various concentration (three fold serial dilution, 12 points) of test compounds. The A357P cell viability was assessed by the conventional 3-(4,5-dimethylthiazol-2-yl)-2,5-diphenyltetrazolium bromide (MTT) reduction assay. MTT assays were carried out with CellTiter 96 (Promega) according to the manufacturer's instructions.
After 1 day, 0.5 μl the representative compounds of the examples were added thereto. The representative compounds of the examples were prepared by three fold serial dilution of 10 mM stock solution in DMSO, 12 point (final conc. DMSO 0.5%). Then, 15 μl dye was added in each well. After 2 h, 100 μl stop solution was added each well. After 24 h, absorbance was measured. The absorbance at 590 nm was recorded using EnVision2103 (PerkinElmer; Boston, Mass., US). The IC50 value was calculated using GraphPad Prism 4.0 software.
`CCOC(=O)c1n[nH]c2cc(-c3ccc(NC(=O)Nc4cc(C(F)(F)F)cc(C(F)(F)F)c4)cc3)ccc12` [Example 22, ethyl 6-(4-(3-(3,5-bis(trifluoromethyl)phenyl)ureido)phenyl)-1H-indazole-3-carboxylate] had a GI50 of under 10 µM.

With `Cc1ccc(NC(=O)Nc2ccc(Cl)c(C(F)(F)F)c2)cc1-c1ccc2c(C(=O)NCCN(C)C)n[nH]c2c1` [Example 65, 6-(5-(3-(4-chloro-3-(trifluoromethyl)phenyl)ureido)-2-methylphenyl)-N-(2-(dimethylamino)ethyl)-1H-indazole-3-carboxamide], the GI50 is under 10 µM.

With `CCOC(=O)c1n[nH]c2cc(-c3ccc(NC(=O)Nc4cccc(C(F)(F)F)c4)cc3)ccc12` [Example 23, ethyl 6-(4-(3-(3-(trifluoromethyl)phenyl)ureido)phenyl)-1H-indazole-3-carboxylate], the GI50 is under 10 µM.

The compound `CCOC(=O)c1n[nH]c2cc(-c3cccc(NC(=O)c4cc5ccccc5s4)c3)ccc12` [Example 47, ethyl 6-(3-(benzo[b]thiophene-2-carboxamido)phenyl)-1H-indazole-3-carboxylate] came in with a GI50 of under 10 µM.

For `COC(=O)c1n[nH]c2cc(-c3cccc(NC(=O)Nc4ccc(C)cc4C)c3)ccc12` [Example 56, methyl 6-(3-(3-(2,4-dimethylphenyl)ureido)phenyl)-1H-indazole-3-carboxylate], the GI50 was under 10 µM.

Compound `CNC(=O)c1n[nH]c2cc(-c3ccc(NC(=O)c4ccc(-c5ccc(OC)cc5)o4)cc3)ccc12` [Example 25, 6-(4-(5-(4-methoxyphenyl)furan-2-carboxamido)phenyl)-N-methyl-1H-indazole-3-carboxamide] showed a GI50 of under 10 µM.

With `CNC(=O)c1n[nH]c2cc(-c3ccc(NC(=O)c4cc(-n5cnc(C)c5)cc(C(F)(F)F)c4)cc3)ccc12` [Example 39, N-methyl-6-(4-(3-(4-methyl-1H-imidazol-1-yl)-5-(trifluoromethyl)benzamido)phenyl)-1H-indazole-3-carboxamide], the GI50 was under 10 µM.

As for `COC(=O)c1n[nH]c2cc(-c3cccc(NC(=O)Nc4ccc(N5CCN(C)CC5)c(C(F)(F)F)c4)c3)ccc12` [Example 70, methyl 6-(3-(3-(4-(4-methylpiperazin-1-yl)-3-(trifluoromethyl)phenyl)ureido)phenyl)-1H-indazole-3-carboxylate], the GI50 is under 10 µM.

Regarding `O=C(Nc1ccc(-c2ccc3c(C(=O)NCCN4CCOCC4)n[nH]c3c2)cc1)c1cccc(C(F)(F)F)c1` [Example 30, N-(2-morpholinoethyl)-6-(4-(3-(trifluoromethyl)benzamido)phenyl)-1H-indazole-3-carboxamide], the GI50 is under 10 µM.

`CCOC(=O)c1n[nH]c2cc(-c3ccc(NC(=O)c4ccnnc4)cc3)ccc12` [Example 10, ethyl 6-(4-(pyridazine-4-carboxamido)phenyl)-1H-indazole-3-carboxylate]: the GI50 is under 10 µM.

Regarding `COC(=O)c1n[nH]c2ccc(-c3ccc(NC(=O)Nc4ccc(Cl)c(C(F)(F)F)c4)cc3)cc12` [Example 43, methyl 5-(4-(3-(4-chloro-3-(trifluoromethyl)phenyl)ureido)phenyl)-1H-indazole-3-carboxylate], the GI50 is under 10 µM.

For the compound `CCOC(=O)c1n[nH]c2cc(-c3ccc(NC(=O)Cc4ccc(OC)c(OC)c4)cc3)ccc12` [Example 11, ethyl 6-(4-(2-(3,4-dimethoxyphenyl)acetamido)phenyl)-1H-indazole-3-carboxylate], the 50% growth inhibitory concentration (GI50) was under 10 µM.

In turn, `Cc1ccc(NC(=O)Nc2ccc(Cl)c(C(F)(F)F)c2)cc1-c1ccc2c(C(=O)NC3CC3)n[nH]c2c1` [Example 66, 6-(5-(3-(4-chloro-3-(trifluoromethyl)phenyl)ureido)-2-methylphenyl)-N-cyclopropyl-1H-indazole-3-carboxamide] returned a GI50 of under 10 µM.

Regarding `O=C(Nc1ccc(-c2ccc3c(C(=O)NCCN4CCOCC4)n[nH]c3c2)cc1)Nc1ccc(Cl)c(Cl)c1` [Example 36, 6-(4-(3-(3,4-dichlorophenyl)ureido)phenyl)-N-(2-morpholinoethyl)-1H-indazole-3-carboxamide], the GI50 was under 10 µM.

With `O=C(Nc1ccc(-c2ccc3c(C(=O)NCCN4CCOCC4)n[nH]c3c2)cc1)c1cc2ccccc2s1` [Example 32, 6-(4-(benzo[b]thiophene-2-carboxamido)phenyl)-N-(2-morpholinoethyl)-1H-indazole-3-carboxamide], the GI50 is under 10 µM.

The compound `CNC(=O)c1n[nH]c2cc(-c3ccc(NC(=O)c4ccc(Br)s4)cc3)ccc12` [Example 26, 6-(4-(5-bromothiophene-2-carboxamido)phenyl)-N-methyl-1H-indazole-3-carboxamide] had a GI50 of under 10 µM.

For `O=C(Nc1cccc(-c2ccc3c(C(=O)NCCN4CCOCC4)n[nH]c3c2)c1)c1cc(N2CCOCC2)cc(C(F)(F)F)c1` [Example 59, 6-(3-(3-morpholino-5-(trifluoromethyl)benzamido)phenyl)-N-(2-morpholinoethyl)-1H-indazole-3-carboxamide], the GI50 is under 10 µM.

`CNC(=O)c1n[nH]c2cc(-c3cc(NC(=O)Nc4cc(-n5cnc(C)c5)cc(C(F)(F)F)c4)ccc3C)ccc12` [Example 75, N-methyl-6-(2-methyl-5-(3-(3-(4-methyl-1H-imidazol-1-yl)-5-(trifluoromethyl)phenyl)ureido)phenyl)-1H-indazole-3-carboxamide] showed a GI50 of under 10 µM.

In turn, `CNC(=O)c1n[nH]c2cc(-c3ccc(NC(=O)c4cc5ccccc5s4)cc3)ccc12` [Example 27, 6-(4-(benzo[b]thiophene-2-carboxamido)phenyl)-N-methyl-1H-indazole-3-carboxamide] returned a GI50 of under 10 µM.

For the compound `COC(=O)c1n[nH]c2cc(-c3cccc(NC(=O)c4cc(N5CCOCC5)cc(C(F)(F)F)c4)c3)ccc12` [Example 52, methyl 6-(3-(3-morpholino-5-(trifluoromethyl)benzamido)phenyl)-1H-indazole-3-carboxylate], the GI50 is under 10 µM.

`CCOC(=O)c1n[nH]c2cc(-c3ccc(NC(=O)c4ccc(-c5cc(C(F)(F)F)ccc5Cl)o4)cc3)ccc12` [Example 16, ethyl 6-(4-(5-(2-chloro-5-(trifluoromethyl)phenyl)furan-2-carboxamido)phenyl)-1H-indazole-3-carboxylate] had a GI50 of under 10 µM.

The compound `CCOC(=O)c1n[nH]c2cc(-c3ccc(NC(=O)Nc4ccc(Cl)c(Cl)c4)cc3)ccc12` [Example 20, ethyl 6-(4-(3-(3,4-dichlorophenyl)ureido)phenyl)-1H-indazole-3-carboxylate] displayed a GI50 of under 10 µM.

`CCOC(=O)c1n[nH]c2cc(-c3cccc(NC(=O)Nc4ccc(Cl)c(Cl)c4)c3)ccc12` [Example 55, ethyl 6-(3-(3-(3,4-dichlorophenyl)ureido)phenyl)-1H-indazole-3-carboxylate]: the GI50 is under 10 µM.

In turn, `CNC(=O)c1n[nH]c2cc(-c3cc(NC(=O)c4cc(-n5cnc(C)c5)cc(C(F)(F)F)c4)ccc3C)ccc12` [Example 73, N-methyl-6-(2-methyl-5-(3-(4-methyl-1H-imidazol-1-yl)-5-(trifluoromethyl)benzamido)phenyl)-1H-indazole-3-carboxamide] came in with a GI50 of under 10 µM.

Compound `CCOC(=O)c1n[nH]c2cc(-c3cccc(NC(=O)Nc4ccc(CN5CCN(CC)CC5)c(C(F)(F)F)c4)c3)ccc12` [Example 69, ethyl 6-(3-(3-(4-((4-ethylpiperazin-1-yl)methyl)-3-(trifluoromethyl)phenyl)ureido)phenyl)-1H-indazole-3-carboxylate] displayed a 50% growth inhibitory concentration (GI50) of under 10 µM.

Compound `O=C(Nc1cccc(-c2ccc3c(C(=O)NCCN4CCOCC4)n[nH]c3c2)c1)c1cc(N2CCC(O)CC2)cc(C(F)(F)F)c1` [Example 77, 6-(3-(3-(4-hydroxypiperidin-1-yl)-5-(trifluoromethyl)benzamido)phenyl)-N-(2-morpholinoethyl)-1H-indazole-3-carboxamide] gave a GI50 of under 10 µM.

Compound `CCOC(=O)c1n[nH]c2cc(-c3ccc(NC(=O)c4ccc(OC5CCN(C)CC5)c(C(F)(F)F)c4)cc3)ccc12` [Example 19, ethyl 6-(4-(4-(1-methylpiperidin-4-yloxy)-3-(trifluoromethyl)benzamido)phenyl)-1H-indazole-3-carboxylate] returned a GI50 of under 10 µM.

With `CCNC(=O)c1n[nH]c2cc(-c3cccc(NC(=O)Nc4ccc(C)cc4C)c3)ccc12` [Example 63, 6-(3-(3-(2,4-dimethylphenyl)ureido)phenyl)-N-ethyl-1H-indazole-3-carboxamide], the GI50 was under 10 µM.

As to `Cc1ccc(NC(=O)c2cccc(C(F)(F)F)c2)cc1-c1ccc2c(C(=O)NCCN3CCOCC3)n[nH]c2c1` [Example 67, 6-(2-methyl-5-(3-(trifluoromethyl)benzamido)phenyl)-N-(2-morpholinoethyl)-1H-indazole-3-carboxamide], the GI50 was under 10 µM.

`O=C(Nc1ccc(-c2ccc3[nH]nc(C(=O)NCCN4CCOCC4)c3c2)cc1)Nc1ccc(Cl)c(C(F)(F)F)c1` [Example 72, 5-(4-(3-(4-chloro-3-(trifluoromethyl)phenyl)ureido)phenyl)-N-(2-morpholinoethyl)-1H-indazole-3-carboxamide] displayed a concentration for 50% growth inhibition (GI50) of under 10 µM.
